# Measurements taken from PubChem BioAssay (NCI).
# Values joined by “and” are separate entries in the source; they are usually repeats but may differ in a detail not shown here. Equal values may be shown once.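 96-well plates; 48 h exposure; 5 concentrations. Endpoints by linear interpolation between flanking doses. Not reached: highest tested concentration assigned. Here, GI50 denotes the concentration required for 50% inhibition of growth. TGI denotes the concentration required for complete inhibition of growth.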
# Experiments:
# Assay in all cases: NCI tumour cell line growth inhibition, 48 h
# [1] = test system: HCT-15 colon
# [2] = test system: OVCAR-4 ovarian
# [3] = test system: NCI-H226 lung
# [4] = test system: RPMI-8226 leukemia
# [5] = test system: HCC-2998 colon
# [6] = test system: MDA-MB-435
# [7] = test system: CAKI-1 renal
# [8] = test system: BT-549 breast
# [9] = test system: MCF7 breast
# [10] = test system: HL-60(TB) leukemia
SMILES,GI50 [1],TGI [1],GI50 [2],TGI [2],GI50 [3],TGI [3],GI50 [4],TGI [4],GI50 [5] [µM],TGI [5],GI50 [6] [µM],TGI [6] [µM],GI50 [7] [µM],TGI [7],GI50 [8] [µM],TGI [8] [µM],GI50 [9] [µM],TGI [9],GI50 [10],TGI [10]
COC(=O)[C@H](Cc1c[nH]c2ccccc12)NC(=O)[C@@H](OC)[C@@H]1Cc2cc3cc(OC4CC(OC5CC(O)C(O)C(C)O5)C(O)C(C)O4)c(C)c(O)c3c(O)c2C(=O)[C@H]1OC1CC(OC2CC(OC3CC(C)(O)C(O)C(C)O3)C(O)C(C)O2)C(O)C(C)O1 (stereo partly drawn),0.441 µM,> 16.5 µM,0.0125 µM,> 16.5 µM,0.0065 µM,0.145 µM,0.00557 µM,0.0607 µM,0.00659,0.0382 µM,0.00784,0.0394,0.345,> 16.5 µM,0.00527,0.031,0.00391,2.55 µM,0.0119 µM,0.386 µM
Cn1cnc([N+](=O)[O-])c1[Se]c1nc(N)nc2c1ncn2C1OC(CO)C(O)C1O (stereo not drawn),–,> 100 µM,–,> 100 µM,–,> 100 µM,–,> 100 µM,–,> 100 µM,–,> 100,–,> 100 µM,–,> 100,–,> 100 µM,–,> 100 µM
C=C(C)C1CCC2(C(=O)O)CCC3(C)C(CCC4C5(C)CCC(OC(=O)NCc6ccccc6)C(C)(C)C5CCC43C)C12 (stereo not drawn),3.74 µM,> 100 µM,3.8 µM,> 100 µM,6.69 µM,> 100 µM,0.757 µM,6.49 µM,2.8,> 100 µM,5.33,> 100,1.63,15.7 µM,4.05,33.3,4.08,> 100 µM,2.39 µM,28.1 µM
Clc1ccc(-c2c(C3=NCCCN3)nnn2-c2ccc(Cl)cc2)cc1,–,> 100 µM,–,> 100 µM,–,> 100 µM,–,62.4 µM,–,38.3 µM,–,35.9,–,> 94.1 µM,–,> 100,–,> 55.8 µM,–,48.1 µM
C=C[C@H]1C[C@@H]2C[C@@H]3[C@H]4C/C=C\C(=O)NCCCC5NC(=O)C(=C(O)/C=C/[C@@H]4CC(=O)[C@H]3[C@@H]2[C@H]1C)C5=O (stereo partly drawn),0.294 µM,0.949 µM,0.21 µM,0.413 µM,0.166 µM,0.379 µM,1.5 µM,3.68 µM,1.41,2.78 µM,0.203,0.408,0.191,0.374 µM,0.158,0.322,1.24,2.8 µM,1.68 µM,3.42 µM
Cc1ccc(C(=O)Nc2ccc(CN3CCN(C)CC3)c(C(F)(F)F)c2)cc1C#Cc1cnc(N)c2ccccc12,0.142 µM,0.849 µM,0.219 µM,1.33 µM,1.16 µM,6.54 µM,0.736 µM,2.08 µM,0.738,1.56 µM,0.214,0.835,0.328,1.05 µM,1.93,8.71,0.799,1.61 µM,0.491 µM,2.41 µM
COc1cc2c(c(OC)c1OC)-c1c(cc3c(c1OC)OCO3)C1OC2C(C)C1C (stereo not drawn) (tested in a mixture with another compound),–,> 100 µM,–,> 100 µM,–,> 100 µM,–,> 100 µM,–,> 100 µM,–,> 100,–,> 100 µM,–,> 100,–,> 100 µM,–,> 100 µM
CCc1oc2ccccc2c1C(=O)c1cc(I)c(O)c(I)c1,2.26 µM,14.1 µM,5.07 µM,18.1 µM,10.6 µM,27 µM,2.33 µM,30.5 µM,4.84,17.5 µM,0.327,1.4,2.3,10.8 µM,2.79,13.9,4.02,14.7 µM,1.62 µM,8.74 µM
Cn1c2ccccc2c2c3[nH]c(=O)[nH]c(=O)c3c3c4ccccc4n(C)c3c21,1.62 µM,> 100 µM,–,–,1.66 µM,5.37 µM,–,–,8.25,> 100 µM,3.05,> 100,–,–,2.83,18.7,1.9,> 100 µM,> 100 µM,> 100 µM
CON(C)C(=O)N1N=C(c2cc(F)ccc2F)SC1(CCCN)c1ccccc1 (stereo not drawn),0.0485 µM and < 0.01 µM,15.9 µM and 17.6 µM,4.27 µM and 3.37 µM,24.9 µM and 24.8 µM,12 µM and 12.5 µM,27.3 µM and 28.3 µM,0.0131 µM and < 0.01 µM,11 µM and 9.04 µM,< 0.01,4.34 µM and 4.41 µM,< 0.01,< 0.01,0.238,17.3 µM and 18.1 µM,0.302,17.5,< 0.01,11.6 µM and 11.5 µM,0.0184 µM and < 0.01 µM,5.38 µM and 2.03 µM
O=C1/C(=C/c2ccc(O)cc2)CSc2ccc(Cl)cc21,8.31 µM,21.9 µM,21.7 µM,> 100 µM,22.1 µM,51.2 µM,3.62 µM,> 100 µM,13.6,30.1 µM,4.54,25.3,21.2,52 µM,15.7,38.3,0.651,11 µM,2.27 µM,> 100 µM
Fc1ccc(-c2nn3ncccc3c2-c2ccnc(Nc3ccc4c(c3)OCCO4)n2)cc1,3.59 µM,19.4 µM,6.89 µM,> 25 µM,5.76 µM,> 18.9 µM,7.85 µM,> 25 µM,4.81,10.1 µM,4.9,> 21.5,0.891,> 17.2 µM,7.87,24.9,2.79,> 25 µM,5.01 µM,13.8 µM
CC1(C)N=C(N)N=C(N)N1c1ccc(OCc2ccc(S(=O)(=O)F)c(Cl)c2)c(Cl)c1,0.586 µM,> 100 µM,17.5 µM,> 100 µM,9.72 µM,> 100 µM,> 100 µM,> 100 µM,4.97,> 100 µM,0.558,> 100,–,–,18.9,> 100,0.641,> 100 µM,1.35 µM,> 100 µM
CO[C@H]1C=C[C@@]23c4cc5c(cc4CO[C@]2(O)CN(C)[C@H]3C1)OCO5,–,> 100 µM,–,> 100 µM,–,> 100 µM,–,> 100 µM,–,> 100 µM,–,> 100,–,> 100 µM,–,> 100,–,> 100 µM,–,> 100 µM
COC(=O)c1c(C)[nH]c(/C=C2\N=C(c3ccc[nH]3)C=C2OC)c1C,0.0375 µM,1.24 µM,0.571 µM,2.44 µM,1.66 µM,7.92 µM,0.856 µM,4.98 µM,0.668,2.78 µM,0.108,1.46,–,–,0.199,3.04,0.413,3.12 µM,0.164 µM,2.33 µM
CCOC(=O)c1c(C)nc2c(c1N)/C(=C/c1ccc(OC)cc1)C(=O)N2Cc1ccc(F)cc1,0.127 µM,0.543 µM,0.392 µM,6.25 µM,0.261 µM,1.03 µM,0.224 µM,0.653 µM,0.255,0.762 µM,0.201,0.469,0.25,1.31 µM,0.169,0.365,0.195,1.51 µM,0.14 µM,0.474 µM
COC(=O)C12C3C4C1C1C2C3C41NC(=O)c1csc([C@@H](C[C@H](C(C)C)N(C)C(=O)[C@@H](NC(=O)[C@H]2CCCCN2C)C2CC2)OC(C)=O)n1 (stereo partly drawn),0.138 µM,> 33.3 µM,0.5 µM,> 33.3 µM,0.395 µM,> 33.3 µM,0.00696 µM,> 33.3 µM,0.146,> 33.3 µM,< 0.00333,0.00992,–,–,< 0.00333,4.1,0.00606,> 33.3 µM,0.00356 µM,0.00777 µM
CS(=O)(=O)c1cc(=O)c2ccccc2s1,–,4.86 µM,–,7.8 µM,–,20.3 µM,–,–,–,30.5 µM,–,24.8,–,4.49 µM,–,35.6,–,8.18 µM,–,6.45 µM
O=C(O)[C@@H]1CCCCN1Cc1cc2cc3c(cc2c2cc(OCc4ccccc4)ccc12)OCO3,3.27 µM,13.7 µM,–,–,2.09 µM,5.7 µM,24 µM,77.4 µM,19.3,33.6 µM,3.4,17.5,3.6,33.7 µM,2.97,8.88,2.05,16.5 µM,> 100 µM,> 100 µM
Cc1ccc2[nH]c(C(=O)NN3C(=O)C(C)SC34CCCC(C)C4)c(-c3ccccc3)c2c1 (stereo not drawn),87 µM,> 100 µM,50 µM,> 100 µM,> 100 µM,> 100 µM,53.1 µM,> 100 µM,76.6,> 100 µM,> 100,> 100,95.5,> 100 µM,76.7,> 100,32.7,> 100 µM,–,–
